# According to patent US20240391954A1, “MC4R AGONIST PEPTIDES” (The Regents of the University of Michigan, priority 2021, published 2024):
# pEC50: −log10 of the molar value. Where two headings read alike, the source gives them in different places. Positions of bridges follow the written chain, without caps; N, C: chain ends. Non-standard residues stand in square brackets, D forms with d. Residues, ends and D or L forms follow the SMILES beside them. dPhe(4-Br) = N[C@H](Cc1ccc(Br)cc1)C(=O)O; dPhe(4-F) = N[C@H](Cc1ccc(F)cc1)C(=O)O; d1Nal = N[C@H](Cc1cccc2ccccc12)C(=O)O; 3Pal = N[C@@H](Cc1cccnc1)C(=O)O; Cit = NC(=O)NCCC[C@H](N)C(=O)O; Nle = CCCC[C@H](N)C(=O)O; dAbu = CC[C@@H](N)C(=O)O; Aib = CC(C)(N)C(=O)O
# Tests used:
# human MC4R = molecular target: T1, human MC4R (Homo sapiens, UniProt P32245); experiment: split-luciferase cAMP sensor assay, agonist mode (measurement window 1), hMC4R; format: cell-based; conditions: for Emax / pEC50: agonist mode; for Emax: read-out: MC4R cAMP % max activation; for pEC50: read-out: MC4R cAMP EC50
# T1 construct: host or cells: HEK-293 cells stably expressing the GScAMP22F split-luciferase cAMP sensor and hMC4R, G418 selection
# T1 sequence (P32245 whole entry): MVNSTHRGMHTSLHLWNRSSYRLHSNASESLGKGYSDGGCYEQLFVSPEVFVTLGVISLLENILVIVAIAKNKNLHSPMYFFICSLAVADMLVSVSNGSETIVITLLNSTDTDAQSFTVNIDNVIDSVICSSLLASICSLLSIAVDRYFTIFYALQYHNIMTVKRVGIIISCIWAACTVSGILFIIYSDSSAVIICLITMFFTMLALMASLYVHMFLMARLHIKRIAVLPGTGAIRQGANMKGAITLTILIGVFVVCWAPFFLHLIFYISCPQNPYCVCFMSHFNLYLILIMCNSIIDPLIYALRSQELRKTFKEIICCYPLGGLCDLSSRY
# Procedure, shortened: (§1)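 Live stable cell lines carrying receptor plus GloSensor cAMP22f split-luciferase, loaded with 4% D-luciferin in serum-free medium (~1% serum estimated during assay). Luminescence recorded during in-line peptide addition; direct agonist effect read in window 1, with 20 μM forskolin as normalization reference. EC50 from four-parameter sigmoid fit.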
# human MC3R = molecular target: T2, human MC3R (Homo sapiens, UniProt P41968); experiment: split-luciferase cAMP sensor assay, agonist mode (measurement window 1), hMC3R; format: cell-based; conditions: for Emax / pEC50: agonist mode; for Emax: read-out: MC3R cAMP % max activation; for MC4R selectivity vs MC3R: MC4R versus MC3R; for pEC50: HEK-293 cells stably expressing hMC3R, read-out: MC3R cAMP EC50
# T2 construct: expressed in transfected cells; host or cells: HEK-293 cells stably expressing the GScAMP22F split-luciferase cAMP sensor (parent reporter line from Promega); MC3R clone generated in-house, G418 selection
# T2 sequence (P41968 whole entry): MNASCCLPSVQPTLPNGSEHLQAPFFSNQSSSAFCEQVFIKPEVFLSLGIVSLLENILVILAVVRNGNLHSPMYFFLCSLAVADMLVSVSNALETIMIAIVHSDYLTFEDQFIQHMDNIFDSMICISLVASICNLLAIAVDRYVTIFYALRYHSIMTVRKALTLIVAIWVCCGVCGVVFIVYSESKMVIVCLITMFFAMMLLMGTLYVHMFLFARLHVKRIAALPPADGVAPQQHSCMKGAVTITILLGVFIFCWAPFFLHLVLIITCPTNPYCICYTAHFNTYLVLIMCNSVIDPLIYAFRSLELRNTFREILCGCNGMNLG
# Procedure, shortened: as §1
# Mouse plasma stability = format: in vitro ADME; conditions: 37° C.; for half-life at 1 µM: pooled mouse plasma
# Experimental: FIG. 3. Results of plasma stability testing for control peptides. Compounds shown were incubated in mouse plasma at 37° C. at 1 μM concentrations. 40 ul aliquots were removed at the times indicated and the reactions stopped with the addition of 160 μL cold acetonitrile containing 200 ng/ml of peptide internal standard (IS). The incubation solution was centrifuged at 3500 rpm for 10 minutes to precipitate protein. LC/MS/MS analysis was used to determine the % peptide remaining.
# Pooled mouse plasma was prepared and stored at −80° C, prior to use, 396 μL mouse plasma was incubated at 37° C. for 5 minutes in 1.5 mL microcentrifuge tubes. 4 μL of 100 μM test or control compound/peptide was added to each tube and incubated for 0.5, 15, 30, 60, 120, or 240 minutes. An aliquot of 40 μL of each reaction was stopped by the addition of 4 volume of cold acetonitrile containing 200 ng/mL of […] solution was centrifuged at 3500 rpm for 10 minutes to precipitate protein. The supernatant was used for LC/MS/MS analysis. The natural log peak area ratio (compound peak area/internal standard peak area) was plotted against time and the gradient of the line determined.
# [1] = Plasma protein binding (Centrifree ultrafiltration); format: in vitro ADME
# Experimental: Solutions of test compound in DMSO were prepared at 1 mM, 100 uM and 10 uM, 5 ul of each solution of test compound was added to 495 uL plasma, and incubated at 25° C. for 5 min. Sample was added to a Centrifree® device, then centrifuged at 2000× g for 20 min to obtain desired filtrate volume. Initial plasma samples and ultrafiltrates were subjected to LC-MS/MS. % Free peptide=(concentration of ultrafiltrates/concentration of plasma)×100%. % Bound=100%−% Free
# human MC1R = molecular target: T3, human MC1R (Homo sapiens, UniProt Q01726); experiment: split-luciferase cAMP sensor assay, agonist mode, hMC1R; format: cell-based; conditions: MC4R versus MC1R
# T3 construct: expressed in transfected cells; host or cells: HEK-293 cells stably expressing hMC1R and the GScAMP22F cAMP sensor
# T3 sequence (Q01726 whole entry): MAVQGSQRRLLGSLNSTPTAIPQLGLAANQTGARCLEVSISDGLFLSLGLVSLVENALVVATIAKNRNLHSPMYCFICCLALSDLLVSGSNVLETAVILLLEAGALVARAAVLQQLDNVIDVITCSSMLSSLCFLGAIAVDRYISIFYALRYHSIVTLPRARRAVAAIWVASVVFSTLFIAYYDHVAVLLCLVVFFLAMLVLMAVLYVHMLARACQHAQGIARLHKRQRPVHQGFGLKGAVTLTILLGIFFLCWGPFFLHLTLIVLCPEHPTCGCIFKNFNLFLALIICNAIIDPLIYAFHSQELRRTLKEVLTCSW
# Procedure, shortened: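 HEK-293 cells stably expressing hMC1R and the GScAMP22F split-luciferase cAMP sensor, preloaded 120 min at 37° C with D-luciferin in serum-free medium. Peptide responses were taken as peak luminescence over 2-13 min minus 2-min baseline, normalized to the α-MSH ECmax. EC50 was obtained from a four-parameter variable-slope fit.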
# [2] = HEK-293 cells stably expressing hMC4R
SMILES,MC4R selectivity vs MC1R (human MC4R),MC4R selectivity vs MC3R (human MC4R),Emax (human MC4R; hMC4R stable cell line) [%],Emax (human MC3R; hMC3R stable cell line) [%],half-life at 1 µM (Mouse plasma stability) [h],"fraction unbound at 5 min, 0.1 µM ([1]; 0.1 uM)","fraction unbound at 5 min, 1 µM ([1]; 1.0 uM)","fraction unbound at 5 min, 10 µM ([1]; 10.0 uM)",Emax (human MC4R; % maximal activation) [%],Emax (human MC3R; % maximal activation) [%],MC4R selectivity vs MC3R (human MC3R),MC4R selectivity vs MC1R (human MC1R),also measured
"CC[C@H]1NC(=O)[C@@H](NC(=O)[C@H](CCCNC(=N)N)NC(C)=O)CSSC[C@@H](C(N)=O)NC(=O)[C@@H](Cc2c[nH]c3ccccc23)NC(=O)[C@H](CCCNC(=N)N)NC(=O)[C@@H](Cc2ccc(Br)cc2)NC(=O)[C@H](CCCNC(=N)N)NC1=O [CTX-1247, Arg-cyclo(Cys-D-Abu-Arg-D-Phe(4-Br)-Arg-D-Trp-Cys)] (Ac-RC[dAbu]R[dPhe(4-Br)]R[dW]C-NH2; disulfide 2-8 (inferred))",0.43,2.05,75,13,3.32,0.51,0.47,0.47,,,,,pEC50 (human MC4R; hMC4R stable cell line): 8.48
"CC(=O)N[C@@H](CCCNC(=N)N)C(=O)N[C@H]1CSSC[C@@H](C(N)=O)NC(=O)[C@@H](Cc2c[nH]c3ccccc23)NC(=O)[C@H](CCCNC(=N)N)NC(=O)[C@@H](Cc2ccc(F)cc2)NC(=O)[C@H](CCCNC(=N)N)NC(=O)[C@@H](C)NC1=O [CTX-1236, Arg-cyclo(Cys-D-Ala-Arg-D-Phe(4-F)-Arg-D-Trp-Cys)] (Ac-RC[dA]R[dPhe(4-F)]R[dW]C-NH2; disulfide 2-8)",2.01,1.36,97,66,,,,,,,,,"pEC50 (human MC4R; hMC4R stable cell line): 8.72; half-life (Mouse plasma stability): 3.78 h; fraction unbound at 0.1 uM ([1]; 0.1 uM): 0.55; fraction unbound ([1]; 1.0 uM, read-out: Protein Binding 1.0 uM (converted)): 0.51; fraction unbound ([1]; 10.0 uM, read-out: Protein Binding 10.0 uM (converted)): 0.49"
"COc1ccc(C[C@H]2NC(=O)[C@H](CCCNC(=N)N)NC(=O)[C@@H](C)NC(=O)[C@@H](NC(=O)[C@H](CCCNC(=N)N)NC(C)=O)CSSC[C@@H](C(N)=O)NC(=O)[C@@H](Cc3c[nH]c4ccccc34)NC(=O)[C@H](CCCNC(=N)N)NC2=O)cc1 [CTX-1238, Arg-cyclo(Cys-D-Ala-Arg-D-Tyr(O-Me)-Arg-D-Trp-Cys)] (Ac-RC[dA]R[dY](Me)R[dW]C-NH2; disulfide 2-8 (inferred))",0.44,0.49,79,21,2.87,0.47,0.53,0.59,,,,,
"CC(=O)N[C@@H](CCCNC(=N)N)C(=O)N[C@H]1CSSC[C@@H](C(N)=O)NC(=O)[C@H](Cc2ccccc2)NC(=O)[C@H](CCCNC(=N)N)NC(=O)[C@@H](Cc2ccc(Br)cc2)NC(=O)[C@H](CCCNC(=N)N)NC(=O)[C@@H](C)NC1=O [CTX-1258, Arg-cyclo(Cys-D-Ala-Arg-D-Phe(4-Br)-Arg-Phe-Cys)] (Ac-RC[dA]R[dPhe(4-Br)]RFC-NH2; disulfide 2-8)",0.53,3.04,92,36,> 4,0.53,0.5,0.5,,,,,pEC50 (human MC4R; hMC4R stable cell line): 8.62
"CC(=O)N[C@@H](CCCNC(=N)N)C(=O)N[C@H]1CSSC[C@@H](C(N)=O)NC(=O)[C@@H](Cc2c[nH]c3ccccc23)NC(=O)[C@H](CCCNC(=N)N)NC(=O)[C@@H](Cc2ccc(Br)cc2)NC(=O)[C@H](CCCNC(=N)N)NC(=O)C(C)(C)NC1=O [CTX-1246, Arg-cyclo(Cys-Aib-Arg-D-Phe(4-Br)-Arg-D-Trp-Cys)] (Ac-RC[Aib]R[dPhe(4-Br)]R[dW]C-NH2; disulfide 2-8 (inferred))",,,,21,> 4,0.27,0.56,0.57,,,,,
"CCCC[C@H](NC(=O)[C@H](CCCNC(=N)N)NC(C)=O)C(=O)N[C@H]1CSSC[C@@H](C(N)=O)NC(=O)[C@@H](Cc2c[nH]c3ccccc23)NC(=O)[C@H](CCCNC(=N)N)NC(=O)[C@@H](Cc2ccccc2)NC(=O)[C@H](CCCNC(N)=O)NC1=O [CTX-1608, Arg-Nle-cyclo(Cys-Cit-D-Phe-Arg-D-Trp-Cys)] (Ac-R[Nle]C[Cit][dF]R[dW]C-NH2; disulfide 3-8 (inferred))",,,,,,,,,79,19,0.95,2.07,pEC50 (human MC4R; [2]): 6.54
"CC(=O)N[C@@H](CCCNC(=N)N)C(=O)N[C@H]1CSSC[C@@H](C(N)=O)NC(=O)[C@H](Cc2ccccc2)NC(=O)[C@H](CCCNC(=N)N)NC(=O)[C@@H](Cc2ccccc2)NC(=O)[C@H](Cc2cccnc2)NC(=O)C(C)(C)NC1=O [CTX-1605, Arg-cyclo(Cys-Aib-Pal(3′)-D-Phe-Arg-Phe-Cys)] (Ac-RC[Aib][3Pal][dF]RFC-NH2; disulfide 2-8 (inferred))",,,,,,,,,85,,>300,0.14,pEC50 (human MC3R): < 5.00
"CC(=O)N[C@@H](CCCNC(=N)N)C(=O)N[C@H]1CSSC[C@@H](C(N)=O)NC(=O)[C@H](Cc2c[nH]c3ccccc23)NC(=O)[C@H](CCCNC(=N)N)NC(=O)[C@@H](Cc2ccccc2)NC(=O)[C@H](CCCNC(N)=O)NC(=O)CNC1=O [CTX-1294, Arg-cyclo(Cys-Gly-Cit-D-Phe-Arg-Trp-Cys)] (Ac-RCG[Cit][dF]RWC-NH2; disulfide 2-8 (inferred))",,,,,,,,,102,33,11,111,
"CC(=O)N[C@@H](CCCNC(=N)N)C(=O)N[C@H]1CSSC[C@@H](C(N)=O)NC(=O)[C@H](Cc2c[nH]c3ccccc23)NC(=O)[C@H](CCCNC(=N)N)NC(=O)[C@@H](Cc2ccccc2)NC(=O)[C@H](CCCNC(N)=O)NC(=O)C(C)(C)NC1=O [CTX-1289, Arg-cyclo(Cys-Aib-Cit-D-Phe-Arg-Trp-Cys)]",,,,,,,,,93,21,30,130,
"CCCC[C@H](NC(=O)[C@H](CCCNC(=N)N)NC(C)=O)C(=O)N[C@H]1CSSC[C@@H](C(N)=O)NC(=O)[C@H](Cc2c[nH]c3ccccc23)NC(=O)[C@H](CCCNC(=N)N)NC(=O)[C@@H](Cc2cccc3ccccc23)NC(=O)[C@H](CCCNC(=N)N)NC1=O [CTX-1611, Arg-Nle-cyclo(Cys-Arg-D-Nal(1′)-Arg-Trp-Cys)] (Ac-R[Nle]CR[d1Nal]RWC-NH2; disulfide 3-8 (inferred))",,,,,,,,,67,58,6.61,0.25,pEC50 (human MC4R; [2]): 8.80; pEC50 (human MC3R): 7.96
"CC(=O)N[C@H]1CSSC[C@@H](C(N)=O)NC(=O)[C@H](Cc2ccccc2)NC(=O)[C@H](CCCNC(=N)N)NC(=O)[C@@H](Cc2ccccc2)NC(=O)[C@H](CCCNC(=N)N)NC(=O)CNC1=O [CTX-1638, cyclo(Cys-Gly-Arg-D-Phe-Arg-Phe-Cys)] (Ac-CGR[dF]RFC-NH2; disulfide 1-7)",,,,,,,,,110,75,1.66,1.04,
"CC(=O)N[C@H]1CSSC[C@@H](C(N)=O)NC(=O)[C@H](Cc2ccccc2)NC(=O)[C@H](CCCNC(=N)N)NC(=O)[C@@H](Cc2ccccc2)NC(=O)[C@H](CCCNC(=N)N)NC(=O)C(C)(C)NC1=O [CTX-1635, cyclo(Cys-Aib-Arg-D-Phe-Arg-Phe-Cys)] (Ac-C[Aib]R[dF]RFC-NH2; disulfide 1-7 (inferred))",,,,,,,,,112,70,5.7,1.19,
